Test results published in patent publication US20130071854A1, “METHODS FOR THE IDENTIFICATION AND CHARACTERIZATION OF HDAC INTERACTING COMPOUNDS” (priority 2009, published 2013).
Read-outs that look alike come from different tables or passages of the source.

Legend:
[1] = tested on: CoREST complex; test: Chemoproteomic binding profiling, K562 cell extract, SAHA/ITF2357 probe matrix (Kd app); set-up: species or system human
[2] = tested on: NuRD complex; test: as above; set-up: species or system human
[3] = tested on: Sin3 complex; test: as above; set-up: species or system human
[4] = tested on: T1, MiDAC complex (HDAC1/2, DNTTIP1, CDYL, MIDEAS); test: as above; set-up: species or system human
T1 construct: Kd^app MIDEAS; other: protein MIDEAS; MiDAC complex; Kd^app DNTTIP1; other: protein DNTTIP1

[5] = molecular target: T2, non-HDAC targets (e.g. BZW2, ISOC2, aldehyde dehydrogenases) (Homo sapiens, UniProt O94788); test: as above; conditions: protein ALDH1A2; selected HDACi off-targets
T2 construct: endogenous in cells; host or cells: K562 whole cell extract
T2 sequence (O94788 1-518): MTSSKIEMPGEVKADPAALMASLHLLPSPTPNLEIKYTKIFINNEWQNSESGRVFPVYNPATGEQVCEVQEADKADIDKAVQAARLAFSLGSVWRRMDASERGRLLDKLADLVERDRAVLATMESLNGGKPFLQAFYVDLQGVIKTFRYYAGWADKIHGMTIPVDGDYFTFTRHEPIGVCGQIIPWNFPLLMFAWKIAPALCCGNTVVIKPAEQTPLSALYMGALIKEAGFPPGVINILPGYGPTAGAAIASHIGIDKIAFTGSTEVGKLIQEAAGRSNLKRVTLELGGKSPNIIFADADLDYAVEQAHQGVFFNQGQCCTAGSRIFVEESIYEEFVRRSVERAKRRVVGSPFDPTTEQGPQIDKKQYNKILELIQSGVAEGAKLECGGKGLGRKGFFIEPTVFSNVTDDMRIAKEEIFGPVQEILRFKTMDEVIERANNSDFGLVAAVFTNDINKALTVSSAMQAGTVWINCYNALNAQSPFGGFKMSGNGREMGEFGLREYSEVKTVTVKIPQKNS

[6] = molecular target: T3, non-HDAC targets (e.g. BZW2, ISOC2, aldehyde dehydrogenases) (Homo sapiens, UniProt P16152); test: as above; conditions: protein CBR1; selected HDACi off-targets
T3 construct: Kd^app CBR1; other: protein CBR1; selected HDACi off-targets
T3 sequence (P16152 1-277): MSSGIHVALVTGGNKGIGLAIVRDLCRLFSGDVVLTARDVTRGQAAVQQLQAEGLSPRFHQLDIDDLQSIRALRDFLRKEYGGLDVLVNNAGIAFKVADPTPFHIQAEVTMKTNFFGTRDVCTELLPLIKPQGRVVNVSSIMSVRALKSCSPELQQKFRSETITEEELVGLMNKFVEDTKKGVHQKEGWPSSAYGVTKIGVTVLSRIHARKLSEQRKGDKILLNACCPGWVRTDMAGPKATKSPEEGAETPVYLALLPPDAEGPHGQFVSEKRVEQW

[7] = molecular target: T4, non-HDAC targets (e.g. BZW2, ISOC2, aldehyde dehydrogenases) (Homo sapiens, UniProt Q08209); test: as above; conditions: protein PPP3CA; selected HDACi off-targets
T4 construct: Kd^app PPP3CA; other: protein PPP3CA; selected HDACi off-targets

[8] = molecular target: T5, non-HDAC targets (e.g. BZW2, ISOC2, aldehyde dehydrogenases) (Homo sapiens, UniProt Q96AB3); test: as above; conditions: protein ISOC2; selected HDACi off-targets
T5 construct: endogenous in cells; host or cells: K562 whole cell extract
T5 sequence (Q96AB3 1-205): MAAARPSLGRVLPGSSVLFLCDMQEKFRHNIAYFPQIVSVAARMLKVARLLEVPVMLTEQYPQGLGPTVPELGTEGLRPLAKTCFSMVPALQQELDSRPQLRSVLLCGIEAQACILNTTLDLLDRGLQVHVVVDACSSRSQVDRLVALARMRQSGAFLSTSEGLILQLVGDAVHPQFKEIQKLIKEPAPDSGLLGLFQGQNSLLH

[9] = molecular target: T6, non-HDAC targets (e.g. BZW2, ISOC2, aldehyde dehydrogenases) (Homo sapiens, UniProt Q9Y6E2); test: as above; conditions: protein BZW2; selected HDACi off-targets
T6 construct: endogenous in cells; host or cells: K562 whole cell extract
T6 sequence (Q9Y6E2 1-419): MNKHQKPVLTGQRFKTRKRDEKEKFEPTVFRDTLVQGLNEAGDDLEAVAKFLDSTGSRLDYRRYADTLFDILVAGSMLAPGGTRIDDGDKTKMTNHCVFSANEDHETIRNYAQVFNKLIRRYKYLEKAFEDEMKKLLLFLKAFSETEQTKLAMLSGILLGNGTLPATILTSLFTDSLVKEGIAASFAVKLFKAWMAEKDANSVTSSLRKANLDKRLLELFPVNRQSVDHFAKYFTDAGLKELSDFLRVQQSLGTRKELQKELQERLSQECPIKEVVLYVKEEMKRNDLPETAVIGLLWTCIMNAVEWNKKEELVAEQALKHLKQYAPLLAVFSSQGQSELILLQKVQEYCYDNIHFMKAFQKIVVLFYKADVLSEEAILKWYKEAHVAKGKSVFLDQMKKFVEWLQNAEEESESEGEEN

[10] = tested on: MIER1; test: Chemoproteomic binding profiling, K562 cell extract, SAHA/ITF2357 probe matrix (Kd app), ELSA (ELM-SANT) domain protein; set-up: species or system human; conditions: ELSA (ELM-SANT) domain proteins
[11] = tested on: MIER2; test: as above; set-up: species or system human; conditions: ELSA (ELM-SANT) domain proteins
[12] = tested on: MIER3; test: as above; set-up: species or system human; conditions: ELSA (ELM-SANT) domain proteins
[13] = tested on: RERE; test: as above; set-up: species or system human; conditions: protein RERE; ELSA (ELM-SANT) domain proteins
[14] = tested on: EHMT2; test: Chemoproteomic binding profiling, K562 cell extract, SAHA/ITF2357 probe matrix (Kd app), ELSA (ELM-SANT) domain proteins group; set-up: species or system human; conditions: protein EHMT2
[15] = molecular target: T7, HDAC10 (Homo sapiens, UniProt Q969S8); test: Chemoproteomic binding profiling, K562 cell extract, SAHA/ITF2357 probe matrix (Kd app); conditions: protein HDAC10; class II HDAC; read-out: Kd^app HDAC10
T7 construct: used to probe endogenous HDACs in K562 whole cell extracts; endogenous in cells
T7 sequence (Q969S8 1-669): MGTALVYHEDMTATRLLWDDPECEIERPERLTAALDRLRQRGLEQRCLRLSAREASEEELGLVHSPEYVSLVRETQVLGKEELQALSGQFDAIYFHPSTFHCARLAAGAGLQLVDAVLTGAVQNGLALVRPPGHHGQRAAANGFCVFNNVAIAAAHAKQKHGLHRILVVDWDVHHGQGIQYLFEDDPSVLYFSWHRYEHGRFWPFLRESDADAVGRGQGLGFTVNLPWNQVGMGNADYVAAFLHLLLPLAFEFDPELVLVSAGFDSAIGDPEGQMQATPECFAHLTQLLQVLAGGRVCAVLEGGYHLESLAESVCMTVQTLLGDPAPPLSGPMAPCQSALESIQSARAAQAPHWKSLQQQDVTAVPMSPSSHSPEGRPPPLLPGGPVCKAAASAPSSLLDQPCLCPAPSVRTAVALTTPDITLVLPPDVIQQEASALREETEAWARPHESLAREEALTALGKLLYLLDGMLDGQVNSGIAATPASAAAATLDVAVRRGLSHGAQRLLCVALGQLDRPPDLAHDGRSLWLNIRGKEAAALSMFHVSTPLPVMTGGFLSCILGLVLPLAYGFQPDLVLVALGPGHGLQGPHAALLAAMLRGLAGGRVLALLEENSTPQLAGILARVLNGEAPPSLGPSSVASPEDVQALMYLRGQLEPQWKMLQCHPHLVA

[16] = tested on: acetylated tubulin; test: Cell-based tubulin acetylation assay (immunofluorescence, western blotting); set-up: species or system human; conditions: K562 and HeLa cells; immunofluorescence and western blotting
[17] = tested on: acetylated histones H3 and H4; test: Cell-based histone acetylation assay (immunofluorescence, western blotting); set-up: species or system human; conditions: K562 and HeLa cells
[18] = protein GSE1, CoREST complex, read-out: Kd^app GSE1
[19] = protein HMG20A, CoREST complex, read-out: Kd^app HMG20A
[20] = protein HMG20B, CoREST complex, read-out: Kd^app HMG20B
[21] = protein PHF21A, CoREST complex, read-out: Kd^app PHF21A
[22] = protein RCOR1, CoREST complex, read-out: Kd^app RCOR1
[23] = protein RCOR2, CoREST complex, read-out: Kd^app RCOR2
[24] = protein RCOR3, CoREST complex, read-out: Kd^app RCOR3
[25] = protein ZMYM2, CoREST complex, read-out: Kd^app ZMYM2
[26] = protein ZMYM3, CoREST complex, read-out: Kd^app ZMYM3
[27] = protein CHD4, NuRD complex, read-out: Kd^app CHD4
[28] = protein GATAD2A, NuRD complex, read-out: Kd^app GATAD2A
[29] = protein GATAD2B, NuRD complex, read-out: Kd^app GATAD2B
[30] = protein MBD2, NuRD complex, read-out: Kd^app MBD2
[31] = protein MBD3, NuRD complex, read-out: Kd^app MBD3
[32] = protein MTA1, NuRD complex, read-out: Kd^app MTA1
[33] = protein MTA2, NuRD complex, read-out: Kd^app MTA2
[34] = protein MTA3, NuRD complex, read-out: Kd^app MTA3

Row | Kd [5] [µM] | Kd [6] [µM] | Kd [7] [µM] | Kd [8] [µM] | Kd [9] [µM] | SMILES | Kd [1, 18] [µM] | Kd [1, 19] [µM] | Kd [1, 20] [µM] | Kd [1, 21] [µM] | Kd [1, 22] [µM] | Kd [1, 23] [µM] | Kd [1, 24] [µM] | Kd [1, 25] [µM] | Kd [1, 26] [µM] | Kd [2, 27] [µM] | Kd [2, 28] [µM] | Kd [2, 29] [µM] | Kd [10] [µM] | Kd [12] [µM] | Kd [13] [µM] | also measured
1 | > 10 | 19 | 40 | 5 | 4 | Cn1cc(C(=O)Cc2ccccc2)cc1C=CC(=O)NO [MC-1293] | > 10 | > 10 | > 10 | > 10 | > 10 | > 10 | > 10 | > 10 | > 10 | > 10 | > 10 | > 10 | > 10 | 209 | > 10 | Kd [2, 30]: > 10 µM; Kd [2, 31]: > 10 µM; Kd [2, 32]: > 10 µM; Kd [2, 33]: > 10 µM; Kd [2, 34]: > 10 µM; Kd ([3]; protein SAP30, read-out: Kd^app SAP30): 164 µM; Kd ([3]; protein SIN3A, read-out: Kd^app SIN3A): > 10 µM; Kd ([3]; protein SIN3B, read-out: Kd^app SIN3B): > 10 µM; Kd ([4]; protein DNTTIP1, read-out: Kd^app DNTTIP1): > 10 µM; Kd ([4]; protein MIDEAS, read-out: Kd^app MIDEAS): > 10 µM; Kd [11]: > 10 µM; Kd [14]: > 10 µM
2 | > 10 | > 10 | > 10 | > 10 | > 10 | CN(C)Cc1c(C(=O)NCCOc2ccc(C(=O)NO)cc2)oc2ccccc12 [PCI-24781] | 0.02 | 0.02 | 0.03 | 0.05 | 0.02 | 0.02 | 0.02 | 0.02 | 0.04 | 0.16 | 0.06 | 0.07 | 0.06 | 0.02 | 0.21 | Kd [2, 30]: 0.17 µM; Kd [2, 31]: 0.04 µM; Kd [2, 32]: 0.05 µM; Kd [2, 33]: 0.06 µM; Kd [2, 34]: 0.05 µM; tubulin acetylation (in words) [16]: increased steady state acetylation of tubulin and histones; histone acetylation (in words) [17]: increased steady state acetylation of tubulin and histones

Row | SMILES | Kd [5] [µM] | Kd [6] [µM] | Kd [7] [µM] | Kd [8] [µM] | Kd [9] [µM] | Kd [1, 18] [µM] | Kd [1, 19] [µM] | Kd [1, 20] [µM] | Kd [1, 21] [µM] | Kd [1, 22] [µM] | Kd [1, 23] [µM] | Kd [1, 24] [µM] | Kd [1, 25] [µM] | Kd [1, 26] [µM] | Kd [2, 27] [µM] | Kd [2, 28] [µM] | Kd [2, 29] [µM] | Kd [10] [µM] | Kd [12] [µM] | Kd [13] [µM] | also measured
3 | Nc1ccccc1NC(=O)c1ccc(CNc2nccc(-c3cccnc3)n2)cc1 [Mocetinostat] | 230 | 109 | > 271 | > 271 | > 271 | – | – | – | – | – | – | – | – | – | – | – | – | 73 | 34 | > 271 | Kd [15]: > 271 µM; Kd ([1]; read-out: Kd^app GSE1): 50 µM; Kd ([1]; read-out: Kd^app HMG20A): 53 µM; Kd ([1]; read-out: Kd^app HMG20B): 62 µM; Kd ([1]; read-out: Kd^app PHF21A): 189 µM; Kd ([1]; read-out: Kd^app RCOR1): 48 µM; Kd ([1]; read-out: Kd^app RCOR2): 103 µM; Kd ([1]; read-out: Kd^app RCOR3): 60 µM; Kd ([1]; read-out: Kd^app ZMYM2): 124 µM; Kd ([1]; read-out: Kd^app ZMYM3): 255 µM; Kd ([2]; read-out: Kd^app CHD4): 170 µM; Kd ([2]; read-out: Kd^app GATAD2A): 183 µM; Kd ([2]; read-out: Kd^app GATAD2B): 106 µM; Kd ([2]; read-out: Kd^app MBD2): 217 µM; Kd ([2]; read-out: Kd^app MBD3): 119 µM; Kd ([2]; read-out: Kd^app MTA1): 136 µM; Kd ([2]; read-out: Kd^app MTA3): 87 µM; Kd [11]: 99 µM; Kd [14]: > 271 µM
